Test results: the Kinase Knowledgebase extract (Sharma et al. 2016)

How the values were obtained:
[1] = target: EGFR (human), P00533 [WT]
[2] = target: EGFR (human), P00533 [Inhibition of EGFR(L858RT/790M) Kinase Activity]
EGFR (human) = EGFR (human) (UniProt P00533); conditions: hcc827
EGFR (human), sequence (P00533 whole entry, looked up): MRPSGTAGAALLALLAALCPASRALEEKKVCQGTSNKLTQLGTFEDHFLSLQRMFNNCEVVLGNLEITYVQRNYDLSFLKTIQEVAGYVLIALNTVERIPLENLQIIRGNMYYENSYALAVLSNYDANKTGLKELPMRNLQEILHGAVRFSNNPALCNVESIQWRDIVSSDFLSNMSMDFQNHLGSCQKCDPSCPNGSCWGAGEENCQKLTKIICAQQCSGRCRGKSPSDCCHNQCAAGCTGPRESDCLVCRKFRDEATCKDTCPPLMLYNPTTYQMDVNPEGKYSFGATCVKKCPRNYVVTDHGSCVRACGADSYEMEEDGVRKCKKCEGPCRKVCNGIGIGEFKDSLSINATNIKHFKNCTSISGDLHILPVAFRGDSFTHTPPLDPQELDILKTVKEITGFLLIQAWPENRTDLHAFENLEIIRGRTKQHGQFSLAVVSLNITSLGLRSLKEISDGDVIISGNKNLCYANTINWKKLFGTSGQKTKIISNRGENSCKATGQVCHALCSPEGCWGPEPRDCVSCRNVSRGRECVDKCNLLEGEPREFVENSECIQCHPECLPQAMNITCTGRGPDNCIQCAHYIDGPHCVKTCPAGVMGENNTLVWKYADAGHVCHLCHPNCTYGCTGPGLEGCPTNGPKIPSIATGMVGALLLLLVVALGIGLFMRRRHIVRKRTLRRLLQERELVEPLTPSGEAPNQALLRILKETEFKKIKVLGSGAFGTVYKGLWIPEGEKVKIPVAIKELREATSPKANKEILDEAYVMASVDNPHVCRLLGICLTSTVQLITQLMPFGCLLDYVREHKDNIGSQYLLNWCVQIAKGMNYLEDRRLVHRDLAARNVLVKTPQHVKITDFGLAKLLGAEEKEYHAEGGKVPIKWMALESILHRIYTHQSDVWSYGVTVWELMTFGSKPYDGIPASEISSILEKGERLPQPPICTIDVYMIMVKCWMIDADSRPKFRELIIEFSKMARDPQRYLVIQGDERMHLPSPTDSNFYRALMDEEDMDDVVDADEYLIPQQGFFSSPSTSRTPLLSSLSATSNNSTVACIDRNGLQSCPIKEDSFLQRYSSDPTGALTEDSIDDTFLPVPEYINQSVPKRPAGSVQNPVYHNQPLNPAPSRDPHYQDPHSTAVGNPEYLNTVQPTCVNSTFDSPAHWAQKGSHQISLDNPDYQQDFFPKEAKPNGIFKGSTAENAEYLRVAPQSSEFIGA

EGFR (human), P00533 [WT], sequence (P00533 whole entry, looked up): as above
EGFR (human), P00533 [Inhibition of EGFR(L858RT/790M) Kinase Activity], sequence (P00533 whole entry, looked up, change not shown): as the sequence (P00533 whole entry, looked up) above

Row | SMILES | IC50 [1] | IC50 [2] | IC50 (EGFR (human))
1 | CCN(CC)C/C=C/C(=O)N1CCc2c(sc3ncnc(N[C@H](CO)c4ccccc4)c23)C1 | < 59 nM | 500 to 2500 nM | 1 to 99 nM
2 | C=CC(=O)N1CCc2c(sc3ncnc(N[C@H](COC)c4ccccc4)c23)C1 | < 59 nM | 10 to 499 nM | 1 to 99 nM
3 | C=CC(=O)N1CCc2c(sc3ncnc(N[C@@H](CCO)c4ccccc4)c23)C1 | 101 to 900 nM | 500 to 2500 nM | 301 to 999 nM
4 | CN(C)C/C=C/C(=O)N1CCc2c(sc3ncnc(N[C@H](COCc4ccccn4)c4ccccc4)c23)C1 | < 59 nM | 500 to 2500 nM | 1 to 99 nM
5 | C=CC(=O)N1CCc2c(sc3ncnc(N[C@H](COCc4cccc(OC)c4)c4ccccc4)c23)C1 | < 59 nM | 10 to 499 nM | 1 to 99 nM
6 | CN(C)C/C=C/C(=O)Nc1cccc(-c2c(-c3ccccc3)oc3ncnc(N[C@H](CO)c4ccccc4)c23)c1 | < 59 nM | 10 to 499 nM | 1 to 99 nM
7 | C=CC(=O)N1CCc2c(sc3ncnc(N[C@H](COCc4ccc(C(F)(F)F)cc4)c4ccccc4)c23)C1 | < 59 nM | 10 to 499 nM | 100 to 300 nM
8 | C=CC(=O)N1CCc2c(sc3ncnc(N[C@H](COCc4cccc([N+](=O)[O-])c4)c4ccccc4)c23)C1 | < 59 nM | 10 to 499 nM | 1 to 99 nM
9 | C=CC(=O)N1CCc2c(sc3ncnc(N[C@H](CCO)c4ccccc4)c23)C1 | < 59 nM | 10 to 499 nM | 1 to 99 nM
10 | O=C(/C=C/CN1CCOCC1)N1CCc2c(sc3ncnc(N[C@H](CO)c4ccccc4)c23)C1 | < 59 nM | 500 to 2500 nM | 1 to 99 nM
11 | C[C@@H](Nc1ncnc2sc3c(c12)CCN(C(=O)/C=C/CN(CCO)CCO)C3)c1ccccc1 | < 59 nM | 500 to 2500 nM | 1 to 99 nM
12 | O=C(/C=C/CN1CCCCC1)N1CCc2c(sc3ncnc(N[C@H](CO)c4ccccc4)c23)C1 | < 59 nM | 500 to 2500 nM | 1 to 99 nM
13 | CCN(CC)C/C=C/C(=O)N1CCc2c(sc3ncnc(N[C@H](C)c4ccccc4)c23)C1 | < 59 nM | 500 to 2500 nM | 1 to 99 nM
14 | C=CC(=O)N1CCc2c(sc3ncnc(N[C@H](CO)c4ccccc4)c23)C1 | < 59 nM | 10 to 499 nM | 1 to 99 nM
15 | C[C@@H](Nc1ncnc2sc3c(c12)CCN(C(=O)/C=C/CNC1CC1)C3)c1ccccc1 | < 59 nM | 500 to 2500 nM | 1 to 99 nM
16 | C=CC(=O)N1CCc2c(sc3ncnc(N[C@H](COCc4ccccc4)c4ccccc4)c23)C1 | < 59 nM | 10 to 499 nM | 1 to 99 nM
17 | CN1CCN(C/C=C/C(=O)N2CCc3c(sc4ncnc(N[C@H](CO)c5ccccc5)c34)C2)CC1 | < 59 nM | 500 to 2500 nM | 1 to 99 nM
